For one experiment, the system named is IL23p19 in THP-1 Cells. The experiment is described as follows: LPS Induced IL23p19 in THP-1 Cells (with IFNγ Primed) Assay. In kind it is cell-based. To be noted: Homo sapiens, THP-1, 18 h, read-out: IL23 (THP, LPS) (IC50, μM). In a few lines: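 THP-1 cells (50K/well) primed with IFNγ (50 ng/mL) about 18 h, then given compound and stimulated with LPS for 18 h at 37 °C. Secreted IL-23p19 measured by sandwich ELISA with chemiluminescent read-out, giving EC50. Cell Titer Glo used on the remaining cells for toxicity.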

In a further experiment the target is IRAK4 (Homo sapiens (Human), UniProt Q9NWZ3). The experiment is described as follows: IRAK4 ADP-Glo Assay. The conditions noted are these: MBP substrate. Type of experiment: biochemical. Put shortly:
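Human IRAK4 kinase reaction with MBP substrate plus ATP in Tris-HCl/MgCl2/BSA/DTT buffer, pH 7.4, run 60 min at room temperature or 30 min at 30 °C. ADP formed was measured by ADP-Glo luminescence after ATP depletion (40 min) and detection reagent (30 min).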
On the technique in general: In ADP-Glo the light output rises with the ADP produced.

The test system of the next experiment is TNF-α in human PBMCs. The experiment is described as follows: R848-induced TNF-α in human PBMCs Assay. In kind it is cell-based. To be noted: Homo sapiens, PBMC, 4 h, read-out: TNFα (PBMC, R848) (IC50, μM). In a few lines: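 Human PBMCs at 200K/well were pretreated with compound, then R848-stimulated for 4 h at 37 °C, 5% CO2. Supernatant TNF-α quantified by chemiluminescent ELISA; EC50 from curve fitting.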

Experiment [1] concerns TNF-α in Human Primary Monocyte-Derived Dendritic Cells. As to the kind of experiment: Gardiquimod-Induced TNF-α in Human Primary Monocyte-Derived Dendritic Cells. In kind it is cell-based. The conditions noted are these: Dendritic cell, IFNγ-primed monocyte-derived dendritic cells, 4 μg/ml Gardiquimod, 6 hours, TNF-α ELISA, read-out: TNFα (DC, GARD) (IC50). Put shortly:
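Monocytes differentiated 7 days with GM-CSF and IL-4, then primed 24 h with 50 ng/ml IFN-γ. Compound added 1 h before 6 h stimulation with 4 μg/ml Gardiquimod, 0.5% DMSO final. Supernatant TNF-α measured by chemiluminescent ELISA; EC50 from curve fitting.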
On the technique in general: In an ELISA, binding on a coated surface is turned into a signal by an enzyme label.

Usually IC50 stands for the concentration needed to halve the response being measured.

IRAK4, sequence (Q9NWZ3 whole entry): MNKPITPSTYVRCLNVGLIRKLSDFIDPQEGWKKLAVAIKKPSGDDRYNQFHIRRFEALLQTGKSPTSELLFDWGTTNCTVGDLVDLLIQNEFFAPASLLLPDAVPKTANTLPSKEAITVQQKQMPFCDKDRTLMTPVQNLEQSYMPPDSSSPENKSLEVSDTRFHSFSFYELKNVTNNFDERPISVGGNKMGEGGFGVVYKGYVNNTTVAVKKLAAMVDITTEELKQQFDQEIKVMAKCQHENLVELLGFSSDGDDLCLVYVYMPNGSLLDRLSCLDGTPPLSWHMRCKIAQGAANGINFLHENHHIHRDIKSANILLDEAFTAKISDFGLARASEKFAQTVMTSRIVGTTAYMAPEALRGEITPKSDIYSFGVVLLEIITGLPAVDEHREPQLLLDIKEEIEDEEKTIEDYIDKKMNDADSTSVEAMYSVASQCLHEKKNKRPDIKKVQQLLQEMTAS

Consider `COC(=O)N1CC(C#Cc2cnc(OC[C@@H]3CCC(=O)N3)c3cc(OC(C)C)c(C(N)=O)cc23)C1` [Compound I-28, methyl (S)-3-((6-carbamoyl-7-isopropoxy-1-((5-oxopyrrolidin-2-yl)methoxy)isoquinolin-4-yl)ethynyl)azetidine-1-carboxylate], for which the IC50 in the experiment on IL23p19 in THP-1 Cells amounted to 0.14 µM; against IRAK4, 6.3 nM; in the experiment with TNF-α in human PBMCs, 0.0331 µM; in experiment [1] it was 111 nM.

As for `CNC(=O)N1CC(C#Cc2cnc(OC[C@@H]3CCC(=O)N3)c3cc(OC(C)C)c(C(N)=O)cc23)C1` [Compound I-29, (S)-7-isopropoxy-4-((1-(methylcarbamoyl)azetidin-3-yl)ethynyl)-1-((5-oxopyrrolidin-2-yl)methoxy)isoquinoline-6-carboxamide], the half-maximal inhibitory concentration (IC50) in the experiment with IL23p19 in THP-1 Cells amounted to 4.25 µM; against IRAK4 it was 5.5 nM; in the experiment on TNF-α in human PBMCs it was 0.686 µM; in experiment [1], 1750 nM.

With `COC1(OC)CC(C#Cc2cnc(OC[C@@H]3CCC(=O)N3)c3cc(OC(C)C)c(C(N)=O)cc23)C1` [Compound I-30, (S)-4-((3,3-dimethoxycyclobutyl)ethynyl)-7-isopropoxy-1-((5-oxopyrrolidin-2-yl)methoxy)isoquinoline-6-carboxamide], the IC50 with IL23p19 in THP-1 Cells turned out to be 0.142 µM; against IRAK4 it was 6.4 nM; in the experiment with TNF-α in human PBMCs, 0.0947 µM; in experiment [1] it was 71 nM.

Take `CC(C)Oc1cc2c(OC[C@@H]3CCC(=O)N3)ncc(C#C[C@H]3C[C@@H](N(C)C)C3)c2cc1C(N)=O` [Compound I-31, 4-((cis-3-(dimethylamino)cyclobutyl)ethynyl)-7-isopropoxy-1-(((S)-5-oxopyrrolidin-2-yl)methoxy)isoquinoline-6-carboxamide]: the IC50 turned out to be 0.136 µM in the experiment with IL23p19 in THP-1 Cells, 3.5 nM against IRAK4, 0.0637 µM in the experiment with TNF-α in human PBMCs and 89.8 nM in experiment [1].

Take `CC(C)Oc1cc2c(OC[C@@H]3CCC(=O)N3)ncc(-c3cnn(C4CC4)c3)c2cc1C(N)=O` [Compound I-32, (S)-4-(1-cyclopropyl-1H-pyrazol-4-yl)-7-isopropoxy-1-((5-oxopyrrolidin-2-yl)methoxy)isoquinoline-6-carboxamide]: the IC50 with IL23p19 in THP-1 Cells was 2.21 µM; against IRAK4, 8.5 nM; with TNF-α in human PBMCs, 0.45 µM; in experiment [1], 569 nM.

Consider `CC(C)Oc1cc2c(OC[C@@H]3CCC(=O)N3)ncc(-c3cnn(C4CCC4)c3)c2cc1C(N)=O` [Compound I-33, (S)-4-(1-cyclobutyl-1H-pyrazol-4-yl)-7-isopropoxy-1-((5-oxopyrrolidin-2-yl)methoxy)isoquinoline-6-carboxamide], for which the concentration for half-maximal inhibition (IC50) with IL23p19 in THP-1 Cells is 0.2 µM; on IRAK4 it was 7.5 nM; in the experiment with TNF-α in human PBMCs, 0.272 µM; in experiment [1], 218 nM.

Turning to `CC(C)Oc1cc2c(OC[C@@H]3CCC(=O)N3)ncc(-c3cnn(C4CCCC4)c3)c2cc1C(N)=O` [Compound I-34, (S)-4-(1-cyclopentyl-1H-pyrazol-4-yl)-7-isopropoxy-1-((5-oxopyrrolidin-2-yl)methoxy)isoquinoline-6-carboxamide], the IC50 came out at 1.3 µM in the experiment with IL23p19 in THP-1 Cells, 7.7 nM on IRAK4, 0.295 µM in the experiment on TNF-α in human PBMCs and 470 nM in experiment [1].

For `CC(C)Oc1cc2c(OC[C@@H]3CCC(=O)N3)ncc(-c3cnn(C4CCOCC4)c3)c2cc1C(N)=O` [Compound I-35, (S)-7-isopropoxy-1-((5-oxopyrrolidin-2-yl)methoxy)-4-(1-(tetrahydro-2H-pyran-4-yl)-1H-pyrazol-4-yl)isoquinoline-6-carboxamide], the half-maximal inhibitory concentration (IC50) was 7.52 µM in the experiment with IL23p19 in THP-1 Cells, 25.7 nM against IRAK4, 1.3 µM in the experiment with TNF-α in human PBMCs and 1620 nM in experiment [1].

Consider `CC(C)Oc1cc2c(OC[C@@H]3CCC(=O)N3)ncc(-c3cnn(CC4CCOCC4)c3)c2cc1C(N)=O` [Compound I-36, (S)-7-isopropoxy-1-((5-oxopyrrolidin-2-yl)methoxy)-4-(1-((tetrahydro-2H-pyran-4-yl)methyl)-1H-pyrazol-4-yl)isoquinoline-6-carboxamide], for which the IC50 with IL23p19 in THP-1 Cells was determined as 0.976 µM; against IRAK4, 13.5 nM; in the experiment on TNF-α in human PBMCs, 0.377 µM; in experiment [1] it was 398 nM.

Regarding `CC(C)Oc1cc2c(OC[C@@H]3CCC(=O)N3)ncc(-c3cnn(CCC4CCOCC4)c3)c2cc1C(N)=O` [Compound I-37, (S)-7-isopropoxy-1-((5-oxopyrrolidin-2-yl)methoxy)-4-(1-(2-(tetrahydro-2H-pyran-4-yl)ethyl)-1H-pyrazol-4-yl)isoquinoline-6-carboxamide], the IC50 in the experiment with IL23p19 in THP-1 Cells was found to be 1.34 µM; against IRAK4 it was 13.7 nM; in the experiment with TNF-α in human PBMCs, 0.324 µM; in experiment [1] it was 296 nM.

`CC(C)Oc1cc2c(OC[C@@H]3CCC(=O)N3)ncc(-c3cnn(CCN4CCOCC4)c3)c2cc1C(N)=O` [Compound I-38, (S)-7-isopropoxy-4-(1-(2-morpholinoethyl)-1H-pyrazol-4-yl)-1-((5-oxopyrrolidin-2-yl)methoxy)isoquinoline-6-carboxamide]: the half-maximal inhibitory concentration (IC50) was 3.41 µM in the experiment on IL23p19 in THP-1 Cells, 21 nM against IRAK4, 1.49 µM with TNF-α in human PBMCs and 4030 nM in experiment [1].

For `CCO[C@H]1CC[C@H](n2cc(-c3cnc(OC[C@@H]4CCC(=O)N4)c4cc(OC(C)C)c(C(N)=O)cc34)cn2)CC1` [Compound I-39, 4-(1-(trans-4-ethoxycyclohexyl)-1H-pyrazol-4-yl)-7-isopropoxy-1-(((S)-5-oxopyrrolidin-2-yl)methoxy)isoquinoline-6-carboxamide], the IC50 with IL23p19 in THP-1 Cells is 0.775 µM; against IRAK4, 33.3 nM; with TNF-α in human PBMCs, 0.693 µM; in experiment [1] it was 3520 nM.

With `CC(C)Oc1cc2c(OC[C@@H]3CCC(=O)N3)ncc(-c3cnn([C@H]4CC[C@](C)(O)CC4)c3)c2cc1C(N)=O` [Compound I-40, 4-(1-((1r,4S)-4-hydroxy-4-methylcyclohexyl)-1H-pyrazol-4-yl)-7-isopropoxy-1-(((S)-5-oxopyrrolidin-2-yl)methoxy)isoquinoline-6-carboxamide], the IC50 in the experiment on IL23p19 in THP-1 Cells is 0.817 µM; against IRAK4, 17.1 nM; in the experiment on TNF-α in human PBMCs, 0.188 µM; in experiment [1] it was 2420 nM.

In the case of `CC(C)Oc1cc2c(OC[C@@H]3CCC(=O)N3)ncc(-c3cnn([C@H]4CC[C@@](C)(O)CC4)c3)c2cc1C(N)=O` [Compound I-41, 4-(1-((1s,4R)-4-hydroxy-4-methylcyclohexyl)-1H-pyrazol-4-yl)-7-isopropoxy-1-(((S)-5-oxopyrrolidin-2-yl)methoxy)isoquinoline-6-carboxamide], the IC50 came out at 4.61 µM in the experiment on IL23p19 in THP-1 Cells, 37.6 nM on IRAK4, 0.509 µM with TNF-α in human PBMCs and 10000 nM in experiment [1].

As to `CCO[C@H]1C[C@@H](n2cc(-c3cnc(OC[C@@H]4CCC(=O)N4)c4cc(OC(C)C)c(C(N)=O)cc34)cn2)C1` [Compound I-42, 4-(1-(cis-3-ethoxycyclobutyl)-1H-pyrazol-4-yl)-7-isopropoxy-1-(((S)-5-oxopyrrolidin-2-yl)methoxy)isoquinoline-6-carboxamide], the IC50 in the experiment with IL23p19 in THP-1 Cells was 0.72 µM; on IRAK4, 6.4 nM; in the experiment on TNF-α in human PBMCs it was 0.241 µM; in experiment [1], 135 nM.

As to `CC(C)Oc1cc2c(OC[C@@H]3CCC(=O)N3)ncc(-c3cnn([C@H]4C[C@@H](N(C)C)C4)c3)c2cc1C(N)=O` [Compound I-43, 4-(1-(cis-3-(dimethylamino)cyclobutyl)-1H-pyrazol-4-yl)-7-isopropoxy-1-(((S)-5-oxopyrrolidin-2-yl)methoxy)isoquinoline-6-carboxamide], the IC50 in the experiment on IL23p19 in THP-1 Cells was found to be 3.1 µM; at IRAK4 it was 5 nM; in the experiment with TNF-α in human PBMCs, 0.701 µM; in experiment [1] it was 355 nM.

For `CC(C)Oc1cc2c(OC[C@@H]3CCC(=O)N3)ncc(-c3cnn(C4CCN(C(=O)OC(C)(C)C)CC4)c3)c2cc1C(N)=O` [Compound I-44, tert-butyl (S)-4-(4-(6-carbamoyl-7-isopropoxy-1-((5-oxopyrrolidin-2-yl)methoxy)isoquinolin-4-yl)-1H-pyrazol-1-yl)piperidine-1-carboxylate], the half-inhibitory concentration (IC50) with IL23p19 in THP-1 Cells was determined as 0.937 µM; on IRAK4, 20.9 nM; in the experiment with TNF-α in human PBMCs it was 0.727 µM; in experiment [1] it was 1050 nM.

Regarding `CC(C)Oc1cc2c(OC[C@@H]3CCC(=O)N3)ncc(-c3cnn(C4CCNCC4)c3)c2cc1C(N)=O` [Compound I-45, (S)-7-isopropoxy-1-((5-oxopyrrolidin-2-yl)methoxy)-4-(1-(piperidin-4-yl)-1H-pyrazol-4-yl)isoquinoline-6-carboxamide], the IC50 came to 10.9 µM with IL23p19 in THP-1 Cells, 18.6 nM at IRAK4, 10 µM with TNF-α in human PBMCs and 1360 nM in experiment [1].

For the compound `CC(C)Oc1cc2c(OC[C@@H]3CCC(=O)N3)ncc(-c3cnn(C4CCN(C)CC4)c3)c2cc1C(N)=O` [Compound I-46, (S)-7-isopropoxy-4-(1-(1-methylpiperidin-4-yl)-1H-pyrazol-4-yl)-1-((5-oxopyrrolidin-2-yl)methoxy)isoquinoline-6-carboxamide], the half-inhibitory concentration (IC50) in the experiment with IL23p19 in THP-1 Cells turned out to be 5.42 µM; on IRAK4, 15.6 nM; in the experiment with TNF-α in human PBMCs, 1.25 µM; in experiment [1], 466 nM.

Values taken from patent US20230391748A1, “BICYCLIC INHIBITORS OF IRAK” (priority 2022, published 2023).
